Data from ChEMBL document CHEMBL2390892, “Synthesis and cytotoxic activity on human cancer cells of carbamate derivatives of 4β-(1,2,3-triazol-1-yl)podophyllotoxin” (Eur J Med Chem, 2013).
Activity calls are given as the source filed them. The calls are words filed in the database; no cut-off is given here.

Assays:
[1] = test system: HCT-8; assay: Cytotoxicity against human HCT8 cells assessed as growth inhibition after 48 hrs by MTT assay; type: functional, cell-based; details: HCT-8, 48 h
[2] = test system: HeLa; assay: Cytotoxicity against human HeLa cells assessed as growth inhibition after 48 hrs by MTT assay; type: functional, cell-based
[3] = test system: A549; assay: Cytotoxicity against human A549 cells assessed as growth inhibition after 48 hrs by MTT assay; type: functional, cell-based; details: A549, 48 h
[4] = test system: HL-60; assay: Cytotoxicity against human HL60 cells assessed as growth inhibition after 48 hrs by CCK-8 assay; type: functional, cell-based; details: HL-60, 48 h
[5] = Solubility of the compound in water; type: physicochemical; details: buffer
[6] = test system: A549; assay: Cell cycle arrest in human A549 cells assessed as accumulation at G1 phase at 5 uM after 24 hrs by propidium iodide staining-based FACS flow cytometric analysis (reference value: 58.1%); type: functional
[7] = test system: A549; assay: Cell cycle arrest in human A549 cells assessed as accumulation at S phase at 5 uM after 24 hrs by propidium iodide staining-based FACS flow cytometric analysis (reference value: 25.5%); type: functional
[8] = test system: A549; assay: Induction of apoptosis in human A549 cells assessed as appearance of round, short and dense microtubule networks after 48 hrs by confocal microscopic analysis; type: functional, cell-based
[9] = test system: A549; assay: Induction of apoptosis in human A549 cells assessed as nuclear DNA fragmentation after 48 hrs by DAPI staining-based confocal microscopic analysis; type: functional, cell-based
[10] = test system: A549; assay: Cell cycle arrest in human A549 cells assessed as accumulation at G1 phase at 5 uM after 48 hrs by propidium iodide staining-based FACS flow cytometric analysis (reference value: 58.1%); type: functional
[11] = test system: A549; assay: Cell cycle arrest in human A549 cells assessed as accumulation at S phase at 5 uM after 48 hrs by propidium iodide staining-based FACS flow cytometric analysis (reference value: 25.5%); type: functional
[12] = test system: A549; assay: Cell cycle arrest in human A549 cells assessed as accumulation at sub-G1 phase at 5 uM after 48 hrs by propidium iodide staining-based FACS flow cytometric analysis (reference value: 1.5%); type: functional
[13] = target: DNA topoisomerase 2-alpha (Homo sapiens) (UniProt P11388); assay: Inhibition of DNA topoisomerase-2 (unknown origin) assessed as inhibition of pBR322 DNA relaxation at 100 uM by agarose gel electrophoresis
[14] = test system: A549; assay: Cell cycle arrest in human A549 cells assessed as accumulation at sub-G1 phase at 5 uM after 24 hrs by propidium iodide staining-based FACS flow cytometric analysis (reference value: 1.5%); type: functional
[15] = test system: A549; assay: Cell cycle arrest in human A549 cells assessed as accumulation at G2/M phase at 5 uM after 48 hrs by propidium iodide staining-based FACS flow cytometric analysis (reference value: 16.4%); type: functional
[16] = test system: A549; assay: Induction of apoptosis in human A549 cells assessed as cell shrinkage after 48 hrs by confocal microscopic analysis; type: functional, cell-based
[17] = test system: A549; assay: Cell cycle arrest in human A549 cells assessed as accumulation at G2/M phase at 5 uM after 24 hrs by propidium iodide staining-based FACS flow cytometric analysis (reference value: 16.4%); type: functional
[18] = test system: A549; assay: Induction of apoptosis in human A549 cells assessed as nuclear condensation after 48 hrs by DAPI staining-based confocal microscopic analysis; type: functional, cell-based

Chain of DNA topoisomerase 2-alpha (Homo sapiens) (P11388 whole entry): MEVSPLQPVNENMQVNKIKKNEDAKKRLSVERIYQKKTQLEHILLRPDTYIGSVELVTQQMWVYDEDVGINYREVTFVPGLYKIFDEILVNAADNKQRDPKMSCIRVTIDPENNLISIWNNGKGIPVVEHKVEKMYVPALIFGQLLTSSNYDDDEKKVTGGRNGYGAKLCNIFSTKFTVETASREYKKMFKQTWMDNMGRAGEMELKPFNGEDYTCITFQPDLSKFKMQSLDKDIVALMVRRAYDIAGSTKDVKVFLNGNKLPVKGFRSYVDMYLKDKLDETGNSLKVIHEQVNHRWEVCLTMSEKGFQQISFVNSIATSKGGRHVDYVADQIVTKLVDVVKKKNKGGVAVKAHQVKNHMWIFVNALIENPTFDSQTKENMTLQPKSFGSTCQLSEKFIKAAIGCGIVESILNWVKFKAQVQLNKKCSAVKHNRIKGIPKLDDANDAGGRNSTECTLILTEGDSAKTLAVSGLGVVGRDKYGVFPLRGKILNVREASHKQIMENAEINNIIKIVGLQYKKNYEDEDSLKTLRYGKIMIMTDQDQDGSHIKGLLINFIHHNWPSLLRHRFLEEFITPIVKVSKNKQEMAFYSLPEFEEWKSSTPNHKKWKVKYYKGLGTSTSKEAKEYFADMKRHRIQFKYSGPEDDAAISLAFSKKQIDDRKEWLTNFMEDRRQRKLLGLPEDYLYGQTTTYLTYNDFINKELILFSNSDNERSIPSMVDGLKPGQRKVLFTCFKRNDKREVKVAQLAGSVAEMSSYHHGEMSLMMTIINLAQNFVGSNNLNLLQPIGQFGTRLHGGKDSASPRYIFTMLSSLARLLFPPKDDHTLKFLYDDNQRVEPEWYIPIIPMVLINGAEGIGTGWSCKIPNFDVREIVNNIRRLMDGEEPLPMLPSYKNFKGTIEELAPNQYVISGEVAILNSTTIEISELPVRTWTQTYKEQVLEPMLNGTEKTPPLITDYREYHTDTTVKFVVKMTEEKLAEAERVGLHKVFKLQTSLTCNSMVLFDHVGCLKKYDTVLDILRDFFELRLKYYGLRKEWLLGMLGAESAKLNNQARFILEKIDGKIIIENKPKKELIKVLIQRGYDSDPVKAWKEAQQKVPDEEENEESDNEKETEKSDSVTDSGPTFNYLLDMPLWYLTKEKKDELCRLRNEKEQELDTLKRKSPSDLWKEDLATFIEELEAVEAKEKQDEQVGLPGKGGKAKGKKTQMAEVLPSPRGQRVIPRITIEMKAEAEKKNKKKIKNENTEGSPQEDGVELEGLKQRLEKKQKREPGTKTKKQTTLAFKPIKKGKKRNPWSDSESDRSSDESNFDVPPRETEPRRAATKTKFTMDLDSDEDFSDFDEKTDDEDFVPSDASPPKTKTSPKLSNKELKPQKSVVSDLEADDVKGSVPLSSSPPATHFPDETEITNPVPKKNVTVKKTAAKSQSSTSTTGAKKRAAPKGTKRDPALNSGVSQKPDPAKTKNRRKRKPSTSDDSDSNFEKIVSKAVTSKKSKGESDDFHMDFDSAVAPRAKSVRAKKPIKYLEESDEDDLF

In the case of `COc1cc([C@@H]2c3cc4c(cc3[C@@H](n3cc(COC(=O)N5CCN(c6ccc(F)cc6)CC5)nn3)[C@H]3COC(=O)[C@H]23)OCO4)cc(OC)c1OC`, the IC50 [1] is reported as 1.47 µM, the IC50 [2] is reported as 3.84 µM and the IC50 [3] is reported as 22.1 µM. The IC50 [4] was under 0.01 µM.

With `COc1cc([C@@H]2c3cc4c(cc3[C@@H](n3cc(COC(=O)N5CCN(c6ccc([N+](=O)[O-])cc6)CC5)nn3)[C@H]3COC(=O)[C@H]23)OCO4)cc(OC)c1O` the solubility [5] was “soluble”, the IC50 [1] was 6.15 µM and the IC50 [2] was 3.5 µM. The IC50 [3] was 5.58 µM and the IC50 [4] was 0.32 µM.

In the case of `COc1cc([C@@H]2c3cc4c(cc3[C@@H](n3cc(COC(=O)N[C@@H](CCSC)C(=O)N5CCN(c6ccc([N+](=O)[O-])cc6)CC5)nn3)[C@H]3COC(=O)[C@H]23)OCO4)cc(OC)c1O`, the solubility [5] is reported as “soluble”, the IC50 [1] is reported as 40.8 µM and the IC50 [2] is reported as 10.3 µM. The IC50 [3] was 45.6 µM and the IC50 [4] was 15.7 µM.

With `CCCNC(=O)OCc1cn([C@@H]2c3cc4c(cc3[C@@H](c3cc(OC)c(OC)c(OC)c3)[C@H]3C(=O)OC[C@@H]32)OCO4)nn1` the IC50 [1] was 6.29 µM, the IC50 [2] was 7.42 µM and the IC50 [3] was 46.8 µM. The IC50 [4] was 2.77 µM.

For `CCCNC(=O)OCc1cn([C@@H]2c3cc4c(cc3[C@@H](c3cc(OC)c(O)c(OC)c3)[C@H]3C(=O)OC[C@@H]32)OCO4)nn1`, the IC50 [1] was 16.2 µM, the IC50 [2] was 6.91 µM and the IC50 [3] was 23 µM. For the same compound, the IC50 [4] was 0.183 µM.

`COc1cc([C@@H]2c3cc4c(cc3[C@@H](n3cc(COC(=O)N5CCN(C6CCCC6)CC5)nn3)[C@H]3COC(=O)[C@H]23)OCO4)cc(OC)c1OC` showed an IC50 [1] of 0.35 µM, an IC50 [2] of under 0.01 µM and an IC50 [3] of 8.7 µM. For the same compound, the IC50 [4] was under 0.01 µM.

In the case of `COc1cc([C@@H]2c3cc4c(cc3[C@H](O)[C@H]3COC(=O)[C@H]23)OCO4)cc(OC)c1OC` [PODOFILOX], the solubility [5] is reported as “soluble”.

`COc1cc([C@@H]2c3cc4c(cc3[C@@H](n3cc(COC(=O)NC5CCCC5)nn3)[C@H]3COC(=O)[C@H]23)OCO4)cc(OC)c1OC` showed an IC50 [1] of 14.9 µM, an IC50 [2] of 1.16 µM and an IC50 [3] of 14.8 µM. For the same compound, the IC50 [4] was 0.375 µM.

`COc1cc([C@@H]2c3cc4c(cc3[C@@H](n3cc(COC(=O)N5CCOCC5)nn3)[C@H]3COC(=O)[C@H]23)OCO4)cc(OC)c1O` gave an IC50 [1] of 0.37 µM, an IC50 [2] of 0.03 µM and an IC50 [3] of 1.46 µM. It also gave an IC50 [4] of 0.045 µM.

For `COc1cc([C@@H]2c3cc4c(cc3[C@@H](n3cc(COC(=O)NC5CCCC5)nn3)[C@H]3COC(=O)[C@H]23)OCO4)cc(OC)c1O`, the Activity [6] was 43.1%, the Activity [7] was 36.3% and the Activity [8] was “Dose-dependent effect”. The IC50 [1] was 0.05 µM, the Activity [9] was “Dose-dependent effect” and the Activity [10] was 22.7%. The IC50 [2] was 0.51 µM, the Activity [11] was 55.1% and the Activity [12] was 26.8%. For the same compound, the inhibition [13] was “Active”, the IC50 [3] was 0.14 µM and the Activity [14] was 24.3%. For the same compound, the Activity [15] was 22.2%, the Activity [16] was “Dose-dependent effect” and the Activity [17] was 20.6%. For the same compound, the Activity [18] was “Dose-dependent effect” and the IC50 [4] was under 0.01 µM.

Compound `COc1cc([C@@H]2c3cc4c(cc3[C@@H](n3cc(CO)nn3)[C@H]3COC(=O)[C@H]23)OCO4)cc(OC)c1OC` has an IC50 [1] of 2.76 µM, an IC50 [2] of 0.92 µM and an IC50 [3] of 22.1 µM. The IC50 [4] was 0.298 µM.

With `COc1cc([C@@H]2c3cc4c(cc3[C@@H](n3cc(COC(=O)N5CCOCC5)nn3)[C@H]3COC(=O)[C@H]23)OCO4)cc(OC)c1OC` the IC50 [1] was 2.05 µM, the IC50 [2] was 35.7 µM and the IC50 [3] was 23.3 µM. The IC50 [4] was 0.629 µM.

In the case of `COc1cc([C@@H]2c3cc4c(cc3[C@@H](n3cc(COC(=O)N5CCN(c6ccc([N+](=O)[O-])cc6)CC5)nn3)[C@H]3COC(=O)[C@H]23)OCO4)cc(OC)c1OC`, the IC50 [1] is reported as 31.3 µM, the IC50 [2] is reported as 6.48 µM and the IC50 [3] is reported as 56.6 µM. It also gave an IC50 [4] of 0.625 µM.

With `COc1cc([C@@H]2c3cc4c(cc3[C@@H](O[C@@H]3O[C@@H]5CO[C@@H](C)O[C@H]5[C@H](O)[C@H]3O)[C@H]3COC(=O)[C@H]23)OCO4)cc(OC)c1O` [ETOPOSIDE] the IC50 [1] was 7.06 µM, the IC50 [2] was 2.91 µM and the inhibition [13] was “Active”. The IC50 [3] was 3.2 µM and the IC50 [4] was 1.15 µM.
